# Measurements as given in PMC7796031, “Studies of Coumarin Derivatives for Constitutive Androstane Receptor (CAR) Activation” (Molecules, 2020).
# Read-outs that look alike come from different tables or passages of the source.
# Columns and labels:
# UGT1A1 = assay: Protein expression of UGT1A1 (western blot); assay type: cell-based, human; details: Figure 2; after scoparone or CITCO treatment
# Procedure: (§1) 1 × 10^6 cells were seeded in a 10 cm plate, incubated at 37 °C for overnight and treated with various concentrations of compounds for the indicated times. After incubation, the culture medium was removed and washed twice with 2 mL ice-cold 1× PBS. Three hundred μL of protein lysis buffer (150 mM NaCl, 50 mM Tris-HCl (pH 7.4), 1% SDS, 1% Triton X-100, 1 mM PMSF) was added into each plate, scraped with a rubber policeman, collected into a premarked microtube and the incubated in ice for 1 h, sonicated by Ultrasonic Cell Disruptor for three time at 5 s each. The cell lysated was cleared by centrifugation at 12,000× g for 15 min at 4 °C. Supernatants were transferred into a fresh marked microtube and stored at −20 °C for future use.
# (§2) Protein concentration of each sample was determined using a BCA Protein Assay Kit (Pirece®, Thermo Scientific). Different percentages of SDS-PAGE gels were prepared according to the molecular size of proteins of interest. After complete polymerization of stacking gels, each sample with equal amount of total protein was separated in polyacrylamide gels (stacking gel: 50 v, 60 min; separating gel: 100 v, 60 min). After separating, wet-transfer method was utilized to transfer proteins onto the PVDF membrane. The gels were assembled in the transfer sandwich and put in a transfer tank filled with transfer buffer (25 mM glycine, 0.15% ethanolamine, 20% methanol). The electro-transfer was performed at the voltage of 100 volt for 80 min at 4 °C. After transfer, PVDF-membrane was blocked with 5% BSA in 1× TBS-Tween at room temperature for 1 h. Membrane was washed with 10 mL 1× TBS-Tween three times and incubated with primary antibodies overnight at 4 °C with gentle agitation. After primary antibody was removed, the membrane was washed three times with 10 mL 1× TBS-Tween for 10 min at room temperature with constant shaking. […] The emitted fluorescence from the membrane was caught on a LAS-4000 biomolecule imager (FUJI.).
# human CAR = system: human CAR; parameters: method as in PMID 10757780, PMID 12611900; details: cited from earlier work
# [1] = target: T1, Constitutive androstane receptor (CAR) (Homo sapiens, UniProt Q14994); assay: In vitro CAR activation screening assay (UGT1A1 promoter gtPBREM-pGL4 luciferase reporter in Hep3B-gtPBREM cells); assay type: cell-based; details: for activation at 10 µM: (luminescence of compound − luminescence of scoparone)/luminescence of scoparone × 100%, read-out: CAR Activation Fold
# T1 construct: The pGL4-gtPBREM plasmid was transfected into Hep3B cells; endogenous in cells
# T1 sequence (Q14994 1-352): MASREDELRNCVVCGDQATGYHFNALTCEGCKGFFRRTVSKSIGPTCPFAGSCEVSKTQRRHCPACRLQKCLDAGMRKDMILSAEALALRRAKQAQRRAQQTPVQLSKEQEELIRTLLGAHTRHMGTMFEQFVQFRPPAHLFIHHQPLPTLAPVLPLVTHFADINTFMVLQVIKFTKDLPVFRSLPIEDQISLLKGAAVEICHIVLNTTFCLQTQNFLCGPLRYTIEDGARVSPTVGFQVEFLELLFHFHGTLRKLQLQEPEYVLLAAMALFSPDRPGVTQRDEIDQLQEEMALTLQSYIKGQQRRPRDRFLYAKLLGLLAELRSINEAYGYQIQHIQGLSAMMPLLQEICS
# Description: Until now, there is no commercially available high throughput screening method for CAR activation. Traditionally, CAR activation can be detected in western blots by its downstream signals such as UGT1A1, MRP2 or CYP2B6. […] However, this method was slow and pricy. In order to rapidly screen all the compounds for CAR activation at less cost, an in vitro CAR activation screening assay was developed: DNA was extracted from Hep3B cells and UGT1A1 promoter was obtained using PCR amplification. Ligation between UGT1A1 promoter and pGL4 vector was performed and the plasmid was amplified via E. coli replication. The desired plasmid was extracted from E. coli and transfected into Hep3B. The desired colony bearing UGT1A1 promoter-pGL4 plasmid was selected by neomycin. CAR activation was measured by adding tested compounds to Hep3B for several hours and luminescence was measured. Higher activation will get higher luminescence readout. This assay system was validated with two different CAR agonists: CITCO (direct agonist) and scoparone (an indirect agonist). […] Different concentration of scoparone at 1, 5, 10 and 20 μM had been tested either for luciferase assay or downstream UGT1A1 and MRP2 expression (data not shown) and 10 μM was selected to be the best condition for the following work.
# After successfully establishing the in vitro assay, all of the coumarin compounds were subjected to the screening (at 10 μM) and their SAR was discussed. Although the reporter system can successfully identify CAR-activating compounds under 8 h and display better efficiency and sensitivity compared with western blots, it only presented a medium luciferase response. According to previous studies, CITCO was reported to only moderately enhance human CAR (less than 2-fold), compared with the enhance provided by TCPOBOP for murine CAR (5- to 10-fold) in luciferase reporter assays. […] Another possibility for the medium response in our reporter system might be the contribution of the whole gtPBREM element which might include response-suppressive elements that was used and the single nucleotide variation of DR3 element which was reported to slightly reduce the original UGT1A1 activity.
# The genomic DNA was isolated from Hep3B cells using Wizard® Genomic DNA Purification Kit (Promega, Fitchburg, WI, USA). The promoter region of UGT1A1 gene, gtPBREM element, was amplified by AccuPrime^TM Taq DNA Polymerase High Fidelity Kit (Invitrogen, MA, USA). The sequence of the amplified element was confirmed by DNA sequencing company and cloned into pGL4 luciferase reporter vector. The pGL4-gtPBREM plasmid was transfected into Hep3B cells. The stable pGL4-gtPBREM transfected Hep3B cells, Hep3B-gtPBREM cells, were established after G418 selection. The luciferase activity represented of CAR activation ability was measured using individual established clone. Further, CAR-shRNA was obtained from the Genomic Research Center and transfected into Hep3B-gtPBREM cells. The transient transfected shCAR-Hep3B-gtPBREM cells were used for further luciferase assays.
# The Hep3B-gtPBREM cells and shCAR-Hep3B-gtPBREM cells (1.5 × 10^5 cells/well) were seeded into 12-well plates for overnight then pre-determined concentration compounds were added for desired time. After treatment, transfected cells were washed twice in PBS, lysated with 1× passive lysis buffer and luciferase intensity of equal amount of cell lysate was measured by a Synergy HT Multi-Mode Microplate Reader (BioTek, Winooski, VT, USA).
# MRP2 = assay: Protein expression of MRP2 (western blot); assay type: cell-based, human; details: Figure 2; after scoparone or CITCO treatment
# Procedure: Figure 7 The protein expressions of MRP2 after 6,7-diprenoxycoumarin (50) treatment. Hep3B cell (1 × 10^6) were treated with 50 (5, 10, 20 and 40 μM) for 24 h. Treated cell lysates were prepared as described in the Methods section and the expression of MRP2 was analyzed by western blot.
# as §1
# as §2, with “agitation.” for “agitation. After primary antibody was removed, the membrane was washed three times with 10 mL 1× TBS-Tween for 10 min at room temperature with constant shaking.”
# [2] = system: phosphoenopyruvate carboxykinse (PEPCK) mRNA expression; assay: PEPCK mRNA expression induced by dexamethasone and 8-bromo-cAMP in H4IIE cells; assay type: cell-based, rat; details: dexamethasone (500 nM) + 8-bromo-cAMP
# Procedure: S21 Effects of scoparone, 50 (PLH), and 6 on phosphoenopyruvate carboxykinse (PEPCK) mRNA expression induced by dexamethasone and 8-bromo-cAMP.
# A quantified result of dexamethasone (500 nM) and 8-bromo-cAMP (100µM) induced PEPCK mRNA expression in the presence or absence of scoparone, 50 (PLH) and 6 at 0.78 µM was shown. Insulin (10 nM) was served as an experimental control. Quantified data was presented as mean ± S.E.M. (n = 4). **P < 0.01 and ***P < 0.001 when compared with induction control (None).
# PEPCK mRNA could be induced by dexamethasone and 8-bromo-cAMP after 3hr. The presence of insulin […]
# Scoparone, at 0.78 µM, can suppress PEPCK
# In contrast, both 50 (PLH) and 6 could also suppress PEPCK
# Cell culture: The rat H4IIE cells were cultured in Dulbecco’s Modified Eagle’sMedium (DMEM) containing 1 g/L glucose, 5% (v/v) fetal calf serum (FBS) and 1% (v/v) antibiotics (100 U/mL penicillin and 0.1 g/L streptomycin). Cultured cells were maintained at 37 ◦C in an atmosphere of 5% CO2 and 95% air.
# The measurement of PEPCK gene expression: H4IIE cells were seeded into 6 cm dish and allowed for the attachment. After serum starvation overnight, cells were treated with various conditions described in the figure legend. After treatment, total RNA of each treatment was extracted using TRI-reagent according to the manufacturer’s instructions. The pelleted RNA was dissolved in distilled water, quantified with NanoDrop™ 1000 Spectrophotometer (Thermo Fisher Scientific, USA) and stored at −70 ◦C. Total RNA (1µg) was reverse transcribed to generate templates. 50 ng of cDNA was employed for further PCR. The sequences of […]
# primers for β-actin: 5’-[…]- 3’ and 5’-[…]-3’ and […]
# (1 picture or pasted object on this page, not shown here)
# [3] = MTT cell cytotoxicity assay of coumarin derivatives; assay type: cell-based; details: human, Hep 3B cells, 72 h treatment
# Procedure: The colorimetric assay for cellular growth and survivals described by Hansen et al. with modifications. The MTT (3-(4,5-cimethylthiazol-2yl)-2,5-diphenyltetrazolium bromide, Sigma-Aldrich Inc., Germany) assay was utilized to determine the IC50 value of each compound. Cells (5000 cells/well) were seeded into 96-well plates for 24 h and subsequently the cells were treated with vehicle or tested compounds at pre-determined concentration. After 72 h treatment, MTT solution was added to the final concentration of 0.5 mg/mL and continue cultured for 2 h at 37 °C. Afterward, the cells were lysed with lysis buffer (40% DMF and 20% SDS in H2O) overnight at 37 °C to lysate the cells. The absorbance at 570 nm was then detected by a microplate reader and the IC50 value was calculated.
# murine CAR = system: murine CAR; parameters: method as in PMID 10757780, PMID 12611900; details: cited from earlier work
# CAR protein = assay: Immunofluorescence staining for CAR translocation in Hep3B cells; assay type: cell-based, human; details: pre-treated with 10 nM okadaic acid, then 50 (10 μM) 2 h
# Procedure: Figure 3 Image of immunofluorescence staining for CAR translocation in Hep3B cells after 6,7-diprenoxycoumarin (50) treatment (A) and scoparone treatment (C). Hep3B cells were treated with 50 (10 μM) for 2 h. The negative control group was pre-treated with 10 nM okadaic acid (OA). The blue and green fluorescence stands for signals of nuclei and CAR protein, respectively. The protein expression of nuclear CAR after 6,7-diprenoxycoumarin (50) treatment for 2 h (B).
# Hep3B cells (4 × 10^5) were grown on coverslips for overnight then washed twice with 1× PBS and fixed with 4% paraformaldehyde in 1× PBS for 30 min at room temperature. Cells were then permeabilized with 1× PBS containing 0.1% (v/v) Triton X-100 for 10–15 min and blocked in 1× PBS containing 5% BSA for 1 h at room temperature. CAR antibody (1:200 dilutions) was added and reacted at room temperature for 2 h in 1× PBS containing 5% BSA. FITC-conjugated goat anti-rabbit IgG antibody was added for another 1 h at room temperature. Coverslips were mounted and images were acquired under a fluorescence microscope.
molecule,measurement,setting,value
"Clc1ccc(-c2nc3sccn3c2/C=N/OCc2ccc(Cl)c(Cl)c2)cc1 [CITCO, 6-(4-Chlorophenyl) imidazo [2,1-b] [1, 3] thiazole-5-carbaldehyde O-(3,4-dichlorobenzyl) oxime, reference compound]",protein expression of UGT1A (CAR downstream gene),UGT1A1,upregulated
same,enhancement of human CAR in luciferase reporter assays,human CAR,less than 2 fold
same,elevation of luciferase activity,"[1]; assay validation, direct agonist",about 50%
same,protein expression of MRP2 (CAR downstream gene),MRP2,upregulated
CC(C)=CCOc1cccc2oc(=O)ccc12 [Compound 6],suppression of PEPCK mRNA induction,[2]; test compounds as printed,less potent
same,activation at 10 µM,[1]; Table 1,-5%
"CCCCCOc1cc2ccc(=O)oc2cc1OCCCCC [Compound 47, 6,7-Dipentoxycoumarin]",activation at 10 µM,[1]; Table 2,-10%
same,melting point,,57 to 59 °C
same,IC50 at 72 h,[3],31 µM
Clc1cnc(Oc2ccc(Oc3ncc(Cl)cc3Cl)cc2)c(Cl)c1 [TCPOBOP],enhancement of murine CAR in luciferase reporter assays,murine CAR,5- to 10 fold
"C=C1[C@@H](O)[C@@H]2O[C@]3(CC[C@H](/C=C/[C@@H](C)[C@@H]4CC(C)=C[C@@]5(O[C@H](C[C@@](C)(O)C(=O)O)CC[C@H]5O)O4)O3)CC[C@H]2O[C@@H]1[C@@H](O)C[C@H](C)[C@H]1O[C@@]2(CCCCO2)CC[C@H]1C [okadaic acid, reference compound]",CAR translocation activity of 50 after pre-treatment,CAR protein,inhibited
insulin: Insulin (10 nM) served as an experimental control in the PEPCK assay,suppression of PEPCK mRNA induction,"[2]; 10 nM, experimental control",suppress such induction
